Assay results reported in patent US10202381B2, “Histone demethylase inhibitors” (CELGENE QUANTICEL RESEARCH, INC., priority 2014, dated 2019).

Legend:
JMJD2C = JMJD2C (Homo sapiens (Human), UniProt Q9H3R0); experiment: In vitro enzyme inhibition assay (JMJD2C TR-FRET); type: biochemical; conditions: 0.3 nM JMJD2C, 300 nM H3K9me3-biotin peptide, 2 μM alpha-ketoglutaric acid
Description: This assay determines the ability of a test compound to inhibit JMJD2C demethylase activity. Baculovirus expressed JMJD2C (GenBank Accession #BC143571, AA 2-372) was purchased from BPS Bioscience (Cat#50105).
The ability of test compounds to inhibit the activity of JMJD2C was determined in 384-well plate-format under the following reaction conditions: 0.3 nM JMJD2C, 300 nM H3K9me3-biotin labeled peptide (Anaspec cat #64360), 2 μM alpha-ketoglutaric acid in assay buffer of 50 mM HEPES, pH 7.3, 0.005% Brij35, 0.5 mM TCEP, 0.2 mg/ml BSA, 50 μM sodium L-ascorbate, and 2 μM ammonium iron(II) sulfate. Reaction product was determined quantitatively by TR-FRET after the addition of detection reagent Phycolink Streptavidin-allophycocyanin (Prozyme) and Europium-anti-di-methylated histone H3 lysine 9 (H3K9me2) antibody (PerkinElmer) in the presence of 5 mM EDTA in LANCE detection buffer (PerkinElmer) at a final concentration of 50 nM and 1 nM, respectively.
The assay reaction was initiated by the following: 2 μl of the mixture of 900 nM H3K9me3-biotin labeled peptide and 6 μM alpha-ketoglutaric acid with 2 μl of 11-point serial diluted inhibitor in 3% DMSO were added to each well of the plate, followed by the addition of 2 μl of 0.9 nM JMJD2C to initiate the reaction. The reaction mixture was incubated at room temperature for 30 min, and terminated by the addition of 6 μl of 5 mM EDTA in LANCE detection buffer containing 100 nM Phycolink Streptavidin-allophycocyanin and 2 nM Europium-anti-H3K9me2 antibody. Plates were read by EnVisionMultilabel Reader in TR-FRET mode (excitation at 320 nm, emission at 615 nm and 665 nm) after 1 hr incubation at room temperature. A ratio was calculated (665/615) for each well and fitted to determine inhibition constant (IC50).
The ability of the compounds disclosed herein to inhibit demethylase activity was quantified and the respective IC50 value was determined. Table 3 provides the IC50 values of various compounds disclosed herein.

[1] = test system: KYSE-150 esophageal carcinoma cell line; experiment: In vitro cell-based assay: BrdU cell proliferation ELISA; parameters: species or system human; conditions: Homo sapiens; KYSE-150 cells, BrdU incorporation after 168 hr of compound incubation; read-out: Cellular IC50
Description: Cell lines tested include the JMJD2C gene amplified cell line KYSE-150. This is a quantitative ELISA assay measuring DNA incorporation of BrdU during S-phase as a direct readout of cellular proliferation.
Assay Principle: This is a colorimetric immunoassay for the quantification of cell proliferation. Cells treated for 168 hr with test compounds are assayed for their ability to go through S-phase as a measure of their proliferative potential.
Assay Method: The human KYSE-150 (SMAD4 mut, TP53 mut) esophageal carcinoma cell line was seeded at 2,000 cells/well on a 96-well tissue culture treated plate. After an overnight incubation, cells were treated with compound in an 11-point dilution series with final concentrations ranging from 100 μM to 2 nM. Cells were then incubated in the presence of compound for 168 hr. After compound incubation the cells were assayed using a BrdU Cell Proliferation ELISA (Roche). The cells were first incubated with BrdU labeling reagent for 2 hr. After 2 hr, the BrdU incorporated cells were fixed and denatured, probed with an anti-BrdU-Peroxidase antibody for 1.5 hr and washed. Finally, a tetramethylbenzidine peroxidase substrate was added to each well for 15 min. followed by a H2SO4 stop solution. The plate was read at 450 nm, and the raw optical density data was transferred into XLFit (IDBS) for IC50 calculation using the formula: fit=(D+((Vmax*(x^n))/((x^n)+(Km^n)))).
Table 4 provides the cellular IC50 values of various compounds disclosed herein.

JMJD2C, sequence (Q9H3R0 2-372): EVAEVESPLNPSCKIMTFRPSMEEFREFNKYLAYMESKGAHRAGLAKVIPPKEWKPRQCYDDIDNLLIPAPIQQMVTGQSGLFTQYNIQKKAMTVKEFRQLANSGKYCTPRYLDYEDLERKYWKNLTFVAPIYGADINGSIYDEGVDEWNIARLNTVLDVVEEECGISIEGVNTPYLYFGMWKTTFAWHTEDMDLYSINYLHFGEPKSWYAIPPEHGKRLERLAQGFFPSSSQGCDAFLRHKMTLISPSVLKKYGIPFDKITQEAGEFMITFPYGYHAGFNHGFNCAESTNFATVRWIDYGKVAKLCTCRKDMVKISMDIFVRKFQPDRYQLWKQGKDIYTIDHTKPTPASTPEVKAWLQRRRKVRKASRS

SMILES	IC50 (JMJD2C) [nM]	IC50 [1] [nM]
CCN(c1ccc(Oc2nc(O)c3ccncc3n2)cc1)c1cccc(N2CCN(C)CC2)c1 [Example 141, 2-(4-(ethyl(3-(4-methylpiperazin-1-yl)phenyl)amino)phenoxy)pyrido[3,4-d]pyrimidin-4-ol]	≤ 100	≤ 100
CC(C)c1ccc(Nc2ccc(Oc3nc(O)c4ccncc4n3)cc2)cc1 [Example 121, 2-(4-((4-isopropylphenyl)amino)phenoxy)pyrido[3,4-d]pyrimidin-4-ol]	≤ 100	1000 to 10000
Cc1ccc2c(c1)CCN2c1ccc(Oc2nc(O)c3ccncc3n2)cc1 [Example 128]	≤ 100	≤ 100
CC(C)c1ccc(N(c2ccc(Oc3nc(O)c4ccncc4n3)cc2)C2CCN(C)C2)cc1 (stereo not shown) [Example 127, 2-(4-((4-isopropylphenyl)(1-methylpyrrolidin-3-yl)amino)phenoxy)pyrido[3,4-d]pyrimidin-4-ol]	≤ 100	> 10000
Cc1cc(Oc2nc(O)c3ccncc3n2)ccc1N(C)c1ccc(C(C)C)cc1 [Example 131, 2-(4-((4-isopropylphenyl)(methyl)amino)-3-methylphenoxy)pyrido[3,4-d]pyrimidin-4-ol]	100 to 1000	> 10000
